Measured values reported in patent EP0091995B1, “New compound having antiinflammatory, analgesic and mucoregulating activity, process for its production and relative pharmaceutical compositions” (AUSONIA FARMACEUTICI S.r.l., priority 1982, dated 1983).

Legend:
rabbits = assay: Anti-cough activity, cough induced by citric acid aerosol; conditions: mean number of cough strokes; endoperitoneal route; Codeine 12.5 mg/kg, AFP-695 150 mg/kg
Rats = assay: Gastrolesive action (gastric mucosa examination); assay type: in vivo; conditions: rats fasting 18 hours; 5 hours 30 minutes after treatment; Ibuprofen 100 mg/kg/os, AFP-695 150 mg/kg/os
Description: 5 Hours and 30 minutes after treatments, the animals have been sacrificed and the stomach has been withdrawn for gastric mucosa examination.

[1] = Solubility of the product of the Example; assay type: physicochemical
Excerpt: Its structure is confirmed by analytical and spectroscopical data. • Elemental analysis: • for C23H3403(M.W. = 358.49) • calcd. % C = 77.05; H = 9.56 • found % C = 76.88; H = 9.60. • I.R. Spectrum • (liquid film; absorption band values are expressed in cm^-1): • stretch 0-H 3400-3250 • stretch C=O 1735 • stretch C-0 1205 • H^1 NMR Spectrum • (recorded in CDCI3, internal reference TMS; values of the chemical shifts are expressed in δ): • 0.65-1.2(m, 12H, -CH(CH3)2, C(CH3)2); • 1.3-2 (m, 12H, CH2―CH―CH2, CH2-CH, CH3-CH, OH mobile); • 2.3 (d, 3H, =C-CH3); • 3.5 (q, 1 H, CH3-CH-CO); • 4.7-5 (m, 1H,―CH―O―CO); • 5.3-5.6 (m, 1H, =CH-CH2); • 6.6-7 (m, 4H, aromatics).

male Wistar rat = assay: Bronchosecretogogue activity (Mawatari technique); assay type: in vivo; conditions: 500 mg/kg/os; FlNa = Sodium fluoresceine
Excerpt: The bronchosecretogogue activity has been determined in male Wistar rat by per os administration according to the method of Mawatari [Mawatari H., Kagoshima Daigaku Igaku-Zasshi, 27, 561 (1976)], comparing AFP-695 with carboxymethylcysteine and sobrerol at the doses hereinafter stated.

rat = assay: Antiinflammatory activity, subplantar edema by carrageenin; conditions: Ibuprofen 100 mg/kg os, AFP-695 150 mg/kg os
Description: Tests have been performed on the rat, employing the test of the subplantar edema induced by carrageenin. […] After edema induction, the animals of each group have been controlled, every 60 minutes for 5 consecutive hours, in order to point out the evolution of the inflammatory process.

[2] = Acute toxicity (method of Litchfield and Wilcoxon); conditions: in vivo, oral, os
Excerpt: The acute toxicity has been determined in Swiss mouse and in Wistar rat for different administration routes, according to the method of Litchfield J.T. and Wilcoxon [J. Pharm. Exp. Therap. 96, 99-113, (1949)].
The results obtained are reported in the following Table I; from the same it can be pointed out how AFP is endowed with a very low acute toxicity.

Sprague-Dawley rats = assay: Antiinflammatory activity, pleuritis by carrageenin (method of Vinegar); assay type: in vivo; conditions: oral route
mouse = assay: Analgesic activity, writhings by phenylquinone; assay type: in vivo; conditions: 100 mg/kg os
Description: The test of writhings by phenylquinone in the mouse has been used.
The two drugs have been administered per os 30 minutes […] intraperitoneal injection of phenylquinone.

male rabbit = assay: Mucosecretolytic activity (technique of Giraldez et al); assay type: in vivo; conditions: 500 mg/kg/os
Excerpt: The mucosecretolytic activity has been studied in the male rabbit according to the technique of Giraldez, Grass and Bruseghini(Abstr. Comp. Int. Pharm. N. 1086-Paris 1978), by administration by the oral route, comparing AFP-695 with carboxymethylcysteine and sobrerol at the dose hereinafter stated.

[3] = Pharmacokinetics, plasma and lung levels by gas chromatography; assay type: in vivo, rats; conditions: 100 mg/kg per os; at 30 minutes, and in some instance also at 1 hour
Description: At the moment of treatment rats were fasting since 18 hours. Rats have been then sacrificed in groups of 4 at different times: 30 min., 1 h, 2 h, 4 h, 6 h.
The concentration both of unchanged products and of their metabolites have been measured by gas chromatography in plasma and in the lung.

Row | SMILES | % Inhibition in comparison with controls (rabbits) | Mean ulcers size (Rats) | % Increase of FlNa(*) in comparison with controls (male Wistar rat) | AREA % Inhibition in comparison with controls (rat) | decrease of leucocytes number (Sprague-Dawley rats; 24th hour, equiponderant doses) | % Inhibition in comparison with controls (mouse) | Mean No. of writhings (mouse) | No. animals with writhings (mouse) | % Increase of secretion in comparison with controls (male rabbit) | also measured
1 | CC1=CCC(C(C)(C)O)CC1OC(=O)C(C)c1ccc(CC(C)C)cc1 (stereo not drawn) [AFP-695, 2-methyl-5-(1-hydroxy-1-methylethyl)-cyclohex-2-enyl 2-(4-isobutylphenyl)propionate] | 78.1% | 0.9 ± 0.3 mm | 51.6% | 42.8% | 60.89% | 71.09% | 3.7 ± 1.2 | 3/10 | 35.7% | solubility in the common organic solvents ([1]; common organic solvents): easily soluble in the common organic solvents; solubility in water ([1]; water): substantially insoluble in water; AREA Absolute value (rat; area of limb volume over 0-5 hours): 156.2; MEAN LIMB VOLUME AT DIFFERENT HOURS AFTER TREATMENT 0 (rat; hour 0, 30 minutes before carrageenin): 22.8; MEAN LIMB VOLUME AT DIFFERENT HOURS AFTER TREATMENT 1 (rat; hour 1): 27.2; MEAN LIMB VOLUME AT DIFFERENT HOURS AFTER TREATMENT 2 (rat; hour 2): 29.6; MEAN LIMB VOLUME AT DIFFERENT HOURS AFTER TREATMENT 3 (rat; hour 3): 31.4; MEAN LIMB VOLUME AT DIFFERENT HOURS AFTER TREATMENT 4 (rat; hour 4): 32.6; MEAN LIMB VOLUME AT DIFFERENT HOURS AFTER TREATMENT 5 (rat; hour 5): 34.9; LD50 ([2]; Swiss, mouse): 1800 mg/kg; LD50 ([2]; Wistar, rat): 2200 mg/kg; decrease of the exudate volume, in comparison with control (Sprague-Dawley rats; 24th hour, equiponderant doses): 51.02%; decrease of the number of leucocytes (Sprague-Dawley rats; fifth hour after treatment): 70.91%; decrease of the exudate (Sprague-Dawley rats; fifth hour after treatment, 30 minutes before intrapleural injection): 41.84%; unchanged AFP-695 in plasma [3]: has been found in plasma
2 | COc1ccc2c3c1O[C@H]1[C@@H](O)C=C[C@H]4[C@@H](C2)N(C)CC[C@@]341 [Codeine, codeine, reference compound] | 76.7% |  |  |  |  |  |  |  |  | 
3 | CC1=CCC(C(C)(C)O)CC1O (stereo not drawn) [Sobrerol, 2-methyl-5-(1-hydroxy-1-methyl-ethyl)-2-cyclohexen-1-ol, reference compound] |  |  | 33.4% |  |  |  |  |  | 36.8% | 
4 | CC(C)Cc1ccc(C(C)C(=O)O)cc1 (stereo not drawn) [Ibuprofen, 2-(4-isobutylphenyl)-propionic acid, reference compound] |  | 9.6 ± 1.8 mm |  | 44.2% | 5.58% | 89.84% | 1.3 ± 0.5 | 1/10 |  | 
